ChEMBL document CHEMBL1131829, “Novel protein kinase C inhibitors: synthesis and PKC inhibition of beta-substituted polythiophene derivatives” (Bioorg Med Chem Lett, 1999)

target: Protein kinase C (PKC); test: Inhibition of protein kinase C; assay type: protein assay, Rattus norvegicus

Row | IC50 [M] | SMILES
1 | 5e-06 | O=Cc1csc(-c2ccc(-c3cccs3)s2)c1
2 | 0.00003 | O=Cc1csc(-c2ccc(-c3ccc(CO)s3)s2)c1
3 | 0.0005 | O=Cc1csc(-c2cccs2)c1
4 | 3e-06 | OCc1csc(-c2ccc(-c3cccs3)s2)c1

More lines, now with the values behind:

Row | SMILES | IC50 [M]
5 | O=Cc1ccsc1 | > 0.004
6 | OCc1csc(-c2cccs2)c1 | > 0.001
7 | O=Cc1csc(-c2ccc(-c3ccc(C=O)s3)s2)c1 | 7e-07
8 | OCc1csc(-c2ccc(-c3ccc(CO)s3)s2)c1 | 0.0003
9 | OCc1ccsc1 | > 0.004
10 | CN1CCN(CCCN2c3ccccc3Sc3ccc(C(F)(F)F)cc32)CC1 [TRIFLUOPERAZINE] | 0.0005
11 | O=Cc1ccc(-c2ccc(-c3cc(CO)cs3)s2)s1 | 3e-07
12 | OCc1csc(-c2ccc(CO)s2)c1 | > 0.001
13 | O=Cc1csc(-c2ccc(C=O)s2)c1 | 0.001
